Reference: ChEMBL document CHEMBL1135890, “Structure-activity relationships of 2'-fluoro-2',3'-unsaturated D-nucleosides as anti-HIV-1 agents” (J Med Chem, 2002)

Target: Adenosine deaminase (Bos taurus) (UniProt P56658)
Assay: Michaelis constant was determined against mammalian Adenosine deaminase; NS = not a substrate of adenosine deaminase

Chain of Adenosine deaminase (Bos taurus) (P56658 whole entry, looked up): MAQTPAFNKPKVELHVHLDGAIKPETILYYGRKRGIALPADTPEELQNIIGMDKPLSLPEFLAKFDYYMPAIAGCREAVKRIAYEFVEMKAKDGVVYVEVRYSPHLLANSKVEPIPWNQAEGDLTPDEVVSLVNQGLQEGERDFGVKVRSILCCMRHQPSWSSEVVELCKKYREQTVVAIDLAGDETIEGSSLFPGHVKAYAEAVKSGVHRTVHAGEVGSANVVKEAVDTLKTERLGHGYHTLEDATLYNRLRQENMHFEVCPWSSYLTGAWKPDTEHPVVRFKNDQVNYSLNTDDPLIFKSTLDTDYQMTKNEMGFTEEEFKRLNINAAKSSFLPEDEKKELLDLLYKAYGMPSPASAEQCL

## Nc1ncnc2c1ncn2[C@@H]1O[C@H](CO)C=C1F
  NS: Not a substrate
